The series can be described thus: HILIC, Waters ACQUITY UPLC BEH Amide, 100 × 2.1 mm, 1.7 µm; A: water + 0.125% formic acid + 10 mM ammonium formate; B: 5% water + 95% acetonitrile + 0.125% formic acid + 10 mM ammonium formate; gradient (min/%B) 0/100 2/100 7.7/70 9.5/40 10.25/30 12.75/100 17/100. Particulars: stereoisomer not certain.
In the case of `COc1ccccc1OCCNCC(O)COc1cccc2[nH]c3ccccc3c12` (stereo unspecified) [Carvedilol], the LC retention time is 3.17 min. Turning to `NC(C(=O)NC1C(=O)N2C(C(=O)O)=C(Cl)CSC12)c1ccccc1` (stereo unspecified) [Cefaclor], the LC retention time was 5.61 min. The result for `NC(C(=O)NC1C(=O)N2C(C(=O)O)=C(CSc3cn[nH]n3)CSC12)c1ccc(O)cc1` (stereo unspecified) [Cefatrizine] reads 7.98 min. The same measure for `C=CC1=C(C(=O)O)N2C(=O)C(NC(=O)C(=NO)c3csc(N)n3)C2SC1` (stereo unspecified) [Cefdinir]: 6.94 min; for `C=CC1=C(C(=O)O)N2C(=O)C(NC(=O)C(=NOCC(=O)O)c3csc(N)n3)C2SC1` (stereo unspecified) [Cefixime]: 7.79 min. The same measure for `COCc1c(C(C)C)nc(C(C)C)c(C=CC(O)CC(O)CC(=O)O)c1-c1ccc(F)cc1` (stereo unspecified) [Cerivastatin]: 1.18 min. As for `NCC1CCC(C(=O)Oc2ccc(CCC(=O)O)cc2)CC1` (stereo unspecified) [Cetraxate], the LC retention time is 5.29 min.

Take `CN=C1CN(O)C(c2ccccc2)=c2cc(Cl)ccc2=N1` [Chlordiazepoxide]: the LC retention time turned out to be 1.35 min.

Regarding `O=C(C=Cc1ccc(O)c(O)c1)OC1CC(O)(C(=O)O)CC(O)C1O` (stereo unspecified) [Chlorogenic acid], the LC retention time came out at 6.68 min. The result for `CN(C)CCC(c1ccc(Cl)cc1)c1ccccn1` (stereo unspecified) [Chlorpheniramine] reads 2.54 min; that for `C[N+](C)(C)CCO` [Choline [M]+], 5.18 min. As to `CC1(C)CC1C(=O)NC(=CCCCCSCC(N)C(=O)O)C(=O)O` (stereo unspecified) [Cilastatin], the LC retention time worked out at 7.63 min. The result for `CN(C)CCCSc1ccccc1NC(=O)C=Cc1ccccc1` [Cinanserin] reads 2.61 min. In the case of `O=CC=Cc1ccccc1` [Cinnamaldehyde], the LC retention time was determined as 9.18 min.

Take `COc1cc(N)c(Cl)cc1C(=O)NC1CCN(CCCOc2ccc(F)cc2)CC1OC` (stereo unspecified) [Cisapride]: the LC retention time was found to be 2.28 min. The same measure for `NC(=O)NCCCC(N)C(=O)O` (stereo unspecified) [Citrulline]: 8.74 min; for `Nc1nc(Cl)nc2c1ncn2C1CC(O)C(CO)O1` (stereo unspecified) [Cladribine]: 1.95 min; for `CCC1OC(=O)C(C)C(OC2CC(C)(OC)C(O)C(C)O2)C(C)C(OC2OC(C)CC(N(C)C)C2O)C(C)(OC)CC(C)C(=O)C(C)C(O)C1(C)O` (stereo unspecified) [Clarithromycin]: 3 min. Turning to `CN1C(=O)CC(=O)N(c2ccccc2)c2cc(Cl)ccc21` [Clobazam], the LC retention time worked out at 1.1 min.

On to `NC(=NCc1ccc(Cl)cc1)SCCCc1cnc[nH]1` [Clobenpropit], for which the LC retention time was determined as 6.13 min. `CC(C)N=c1cc2n(-c3ccc(Cl)cc3)c3ccccc3nc-2cc1Nc1ccc(Cl)cc1` [Clofazimine]: the LC retention time is 1.78 min. The result for `CN(C)CCCN1c2ccccc2CCc2ccc(Cl)cc21` [Clomipramine] reads 2.31 min; that for `Clc1cccc(Cl)c1NC1=NCCN1` [Clonidine], 2.85 min; that for `CCOC(=O)C1C(OC(=O)c2ccccc2)CC2CCC1N2C` (stereo unspecified) [Cocaethylene], 2.12 min.

`COC(=O)C1C(OC(=O)c2ccccc2)CC2CCC1N2C` (stereo unspecified) [Cocaine]: the LC retention time turned out to be 2.2 min.

On to `COc1cc(C=CC=O)ccc1O` [Coniferylaldehyde], for which the LC retention time was determined as 1.14 min. The same measure for `Nc1ncnc2c1ncn2C1OC(CO)CC1O` (stereo unspecified) [Cordycepin]: 3.54 min; for `CC12CCC(=O)C=C1CCC1C2C(O)CC2(C)C(C(=O)CO)CCC12` (stereo unspecified) [Corticosterone]: 1.25 min; for `CC12CCC(=O)C=C1CCC1C2C(=O)CC2(C)C1CCC2(O)C(=O)CO` (stereo unspecified) [Cortisone]: 1.29 min. For `CC12CCC(=O)C=C1CCC1C2CCC2(C)C1CCC2(O)C(=O)CO` (stereo unspecified) [Cortodoxone], the LC retention time was 1.15 min.

In the case of `COc1cc2c(cc1OC)C1C(C)c3ccc(OC)c(OC)c3CN1CC2` (stereo unspecified) [Corydaline], the LC retention time was 1.52 min.

As for `CN1C(=O)CCC1c1cccnc1` (stereo unspecified) [Cotinine], the LC retention time worked out at 1.49 min. The result for `O=c1ccc2ccccc2o1` [Coumarin] reads 1.08 min; that for `CN(CC(=O)O)C(=N)N` [Creatine], 8.15 min; that for `CN1CC(=O)NC1=N` [Creatinine], 4.93 min. With `CC=CC(=O)N(CC)c1ccccc1C` [Crotamiton], the LC retention time amounted to 0.97 min. The result for `CC(C)CC1NC(=O)C2CCCN2C1=O` (stereo unspecified) [Cyclo(Leu-Pro)] reads 1.29 min; that for `NC1CCCCC1` [Cyclohexanamine], 5.1 min. On to `CN1CCC(=C2c3ccccc3C=Cc3ccccc32)CC1` [Cyproheptadine], for which the LC retention time was found to be 2.31 min.

On to `NC(CCSCC(N)C(=O)O)C(=O)O` (stereo unspecified) [Cystathionine], for which the LC retention time was determined as 9.91 min. Regarding `NC(CS(=O)(=O)O)C(=O)O` (stereo unspecified) [Cysteic acid], the LC retention time was determined as 8.92 min. The same measure for `NC(CS)C(=O)O` (stereo unspecified) [Cysteine]: 5.31 min; for `NC(CSSCC(N)C(=O)O)C(=O)O` (stereo unspecified) [Cystine]: 9.97 min; for `Nc1ccn(C2OC(COP(=O)(O)O)C(O)C2O)c(=O)n1` (stereo unspecified) [Cytidine-5'-monophosphate]: 9.48 min. The result for `Nc1ccnc(=O)[nH]1` [Cytosine] reads 5.9 min; that for `O=c1c(-c2ccc(O)cc2)coc2cc(O)ccc12` [Daidzein], 1.39 min; that for `CCCCCCCCCC=O` [Decanal], 2.17 min. `CC(CCC(=O)O)C1CCC2C3C(=O)CC4CC(=O)CCC4(C)C3CC(=O)C12C` (stereo unspecified) [Dehydrocholic acid]: the LC retention time worked out at 1.16 min.

For the molecule `CC12CCC3C(CC=C4CC(O)CCC43C)C1CCC2=O` (stereo unspecified) [Dehydroepiandrosterone], the LC retention time is 1.03 min. The same measure for `O=c1ccn(C2CC(O)C(COP(=O)(O)O)O2)c(=O)[nH]1` (stereo unspecified) [Deoxyuridine monophosphate]: 8.25 min; for `Clc1ccc2c(c1)CCc1cccnc1C2=C1CCNCC1` [Desloratadine]: 4.9 min; for `CC1CC2C3CCC4=CC(=O)C=CC4(C)C3(F)C(O)CC2(C)C1C(=O)CO` (stereo unspecified) [Desoximetasone]: 1.13 min. For the molecule `CS(=O)CCCCC(=NO)SC1OC(CO)C(O)C(O)C1O` (stereo unspecified) [Desulfo Glucoraphanin], the LC retention time worked out at 6.61 min.

In the case of `CN(C)CCC(c1ccc(Br)cc1)c1ccccn1` (stereo unspecified) [Dexbrompheniramine], the LC retention time was 2.56 min. The result for `COc1ccc2c(c1)C13CCCCC1C(C2)N(C)CC3` (stereo unspecified) [Dextromethorphan] reads 2.64 min; that for `CN1CCC23CCCCC2C1Cc1ccc(O)cc13` (stereo unspecified) [Dextrorphan], 3.87 min; that for `CN1C(=O)CN=C(c2ccccc2)c2cc(Cl)ccc21` [Diazepam], 1.1 min. The result for `CC1=NS(=O)(=O)c2cc(Cl)ccc2N1` [Diazoxide] reads 1.09 min; that for `O=C(O)Cc1ccccc1Nc1c(Cl)cccc1Cl` [Diclofenac], 1.08 min. For `COc1cc(CNC(=O)CCCCCCC(C)C)ccc1O` [Dihydrocapsaicin], the LC retention time turned out to be 1.07 min. On to `CCCCCCCCCCCCCCCC(O)C(N)CO` (stereo unspecified) [Dihydrosphingosine], for which the LC retention time came to 4.47 min.

For the molecule `CC(CO)CCNc1ncnc2nc[nH]c12` (stereo unspecified) [Dihydrozeatin], the LC retention time was determined as 2.99 min. The result for `COC(=O)c1ccccc1C(=O)OC` [Dimethyl phthalate] reads 1.04 min; that for `CCCCCCCCOC(=O)c1ccccc1C(=O)OCCCCCCCC` [Dioctyl Phthalate], 0.96 min; that for `CN(C)CCOC(c1ccccc1)c1ccccc1` [Diphenhydramine], 2.15 min. For `CCOC(=O)C1(c2ccccc2)CCN(CCC(C#N)(c2ccccc2)c2ccccc2)CC1` [Diphenoxylate], the LC retention time came to 1.41 min. As for `O=c1c(-c2ccccc2)c1-c1ccccc1` [Diphenylcyclopropenone], the LC retention time worked out at 1.01 min. For the molecule `CCN(CC)C(=S)SSC(=S)N(CC)CC` [Disulfiram], the LC retention time was found to be 0.93 min. For `CC(=O)OC12COC1CC(O)C1(C)C(=O)C(O)C3=C(C)C(OC(=O)C(O)C(NC(=O)OC(C)(C)C)c4ccccc4)CC(O)(C(OC(=O)c4ccccc4)C21)C3(C)C` (stereo unspecified) [Docetaxel], the LC retention time was 1.34 min. The same measure for `CN(CCOc1ccc(NS(C)(=O)=O)cc1)CCc1ccc(NS(C)(=O)=O)cc1` [Dofetilide]: 3.38 min; for `O=C(OC1CC2CC3CC(C1)N2CC3=O)c1c[nH]c2ccccc12` (stereo unspecified) [Dolasetron]: 1.9 min; for `COc1cc2c(cc1OC)C(=O)C(CC1CCN(Cc3ccccc3)CC1)C2` (stereo unspecified) [Donepezil]: 2.44 min.

On to `NCCc1ccc(O)c(O)c1` [Dopamine], for which the LC retention time is 6.4 min.

Take `CCN1CC(CCN2CCOCC2)C(c2ccccc2)(c2ccccc2)C1=O` (stereo unspecified) [Doxapram]: the LC retention time was determined as 1.64 min. For the molecule `CN(C)CCC=C1c2ccccc2COc2ccccc21` [Doxepin], the LC retention time was determined as 2.26 min.

For `CN(C)CCOC(C)(c1ccccc1)c1ccccn1` (stereo unspecified) [Doxylamine], the LC retention time stood at 2.45 min. The same measure for `O=C(CCCN1CC=C(n2c(=O)[nH]c3ccccc32)CC1)c1ccc(F)cc1` [Droperidol]: 3.48 min; for `CNCCC(Oc1cccc2ccccc12)c1cccs1` (stereo unspecified) [Duloxetine]: 2.6 min. The same measure for `CC=C1N(C)C(C)CC1(c1ccccc1)c1ccccc1` (stereo unspecified) [EDDP]: 1.9 min; for `COC(=O)C1C(O)CC2CCC1N2C` (stereo unspecified) [Ecgonine methylester]: 4.18 min; for `CN1C2CCC1C(C(=O)O)C(O)C2` (stereo unspecified) [Ecgonine]: 7.61 min.

Values taken from the RepoRT retention time repository.
